In a melting point compilation (Tetko et al.; mined from patent text by program, amines drawn as free bases though some values may be those of a salt) one finds melting point data, which are given here for 60 compounds.

SMILES strings stand for the structures.

The term melting point denotes the temperature of the solid-liquid transition. `Cc1cn(-c2cc(NC(=O)c3ccc(C)c(/C=C/n4cnc5c(N)ncnc54)c3)cc(C(F)(F)F)c2)cn1` showed a melting point of 258 °C.

In turn, `CCCCc1c(C(=O)C(Cl)(Cl)Cl)c2ccccc2n1C` came in with a melting point of 112 to 115 °C.

Compound `COc1ccc2ccc3[nH]c4ccc5ccc(OC)cc5c4c3c2c1` showed a melting point of 133 °C. To `CCC(=O)N1C(=O)OC(C)(C)[C@@H]1C` belongs 86 °C; to `O=C1Nc2ccccc2SC1CO` (stereo not given), 156 to 157 °C; to `CSc1cn(C)c2cc(C)sc2c1=O`, 139 to 142 °C. The value for `CCOP(=O)(Cc1ccccc1CN1C(=O)c2ccccc2C1=O)OCC` was 91 to 92 °C.

For the compound `NNC(=S)C12CC3CC(CC(C3)C1)C2`, the melting point fell in the range of 204 to 206 °C. The compound `COc1ccc(C(=O)Nc2ccncc2)c2c1oc1ccc(C(F)(F)F)cc12` showed a melting point of 259 °C.

`N#Cc1c(N2CCN(C(=O)c3cccs3)CC2)c2cccnc2n(Cc2ccccc2)c1=O` registered a melting point of 263 °C.

`N#CCCn1c(=N)sc2cc(OC(F)(F)F)ccc21`: the melting point amounted to 180 °C.

`CCCCCCC(=O)Nc1ccc(-n2nc(C(F)(F)F)cc2C(F)(F)F)cc1` had a melting point of 88 to 90 °C. To `O=C1OCCN1CCN1CCN(C2Cc3cc(Cl)ccc3Oc3ccc(F)cc32)CC1` (stereo not given) belongs 180 to 182 °C; to `Cc1ccc(Cl)c2nc3cccc(C(=O)NCCCN(C)CCCNC(=O)c4cccc5nc6c(Cl)ccc(C)c6nc45)c3nc12`, 200 to 202 °C; to `COC(=O)C(Oc1ccc(Cl)c2c1CCC2)c1ccc(Oc2ccc(Cl)cc2)cc1` (stereo not given), 94 to 96 °C. `O=S(c1ccc(C=Cc2nc(CCl)co2)cc1)C(F)(F)F` (stereo not given) gave a melting point of 102 to 104 °C. Take `C=CCOc1ccc(OC)c2ccccc12`: the melting point was 30.5 to 32 °C. The value for `COc1cc2ccc(C(=O)CCl)cc2cc1OC` was 137 to 140 °C; that for `OC(CNCCNc1ncnc2nc[nH]c12)COc1ccccc1` (stereo not given) was 169 to 170 °C; that for `CC(C)c1cc(OCC(=O)O)cc2c1C(=O)N(COC(=O)c1c(Cl)cccc1Cl)S2(=O)=O` was 136 to 137 °C. The value for `COc1cc(OC)c2c(=O)[nH]c(-c3cccc(N4CCN(C(C)C)CC4)c3)nc2c1` was 251 to 253 °C; that for `CCSc1nc2c(C(=S)OC)sc(C)c2[nH]1` was 170 to 172 °C; that for `CC(/C=C/c1c(C)sc(C)c1C)=C(F)\C=C\C(C)=C\C(=O)O` was 217 to 223 °C. To `C=CCNc1nc(Cl)nc(N(CCCCCCN(c2nc(Cl)nc(NCC=C)n2)C2CC(C)(C)NC(C)(C)C2)C2CC(C)(C)NC(C)(C)C2)n1` belongs 210 to 211 °C. Compound `CCCN(C=O)n1cc(C(=O)OCC)c(=O)c2cc3c(cc21)OCO3` displayed a melting point of 188 to 192 °C. To `COc1cc(CC(=O)Nc2ccc(C3(CC(=O)O)CCCC3)cc2)ccc1NC(=O)Nc1ccccc1C` belongs 223 to 226 °C; to `COC(=O)c1c(Oc2ccccc2[N+](=O)[O-])c2ccccc2n1C`, 119 to 121 °C.

In the case of `CCc1oncc1C(=O)Nc1ccc([N+](=O)[O-])cc1`, the melting point fell in the range of 139 to 141 °C. For the compound `O=C1NC(=O)C(CC#Cc2cc(C(F)(F)F)cc(C(F)(F)F)c2)(S(=O)(=O)c2ccccn2)S1` (stereo not given), the melting point was in the range of 150 to 152 °C. `O=[N+]([O-])c1ccc2c(c1)S(=O)(=O)NCN2CC(F)(F)F` registered a melting point of 191 to 193 °C. To `N[C@@H](Cc1ccc(CC(F)(F)C(F)(F)F)cc1)[C@H](O)c1cccc(Cl)c1` (racemic) belongs 109 to 110 °C; to `O=P(O)(CCc1ccccc1)CCc1ccccc1`, 84 to 87 °C. To `CC(=O)OC1CSC(Sc2cc(C(F)(F)F)cc(C(F)(F)F)c2)C(OC(C)=O)C1OC(C)=O` (stereo not given) belongs 201 °C; to `CC(C)(C)c1ccc2c(Cc3cccc4ccccc34)c3cc(C(C)(C)C)ccc3c(Cc3cccc4ccccc34)c2c1`, 285 °C; to `CCOC(=O)[C@@H]1C[C@H](OS(=O)(=O)c2ccc(C)cc2)CN1C(=O)OCc1ccccc1`, 91 to 92 °C. The value for `CC(C)[C@H](NC(=O)N(C)Cc1ccccn1)C(=O)N[C@@H](Cc1ccccc1)[C@@H](O)C[C@H](Cc1ccccc1)NC(=O)OC(C)(C)C` was 84 to 85 °C; that for `O=C(c1cccs1)c1cnn2c(-c3cccc(Br)c3)ccnc12` was 193 to 195 °C. `COC(=O)c1c(-c2ccc(OC)cc2)sc2cc(OC)ccc12`: the melting point lay within 85.4 to 86.6 °C. The compound `N#CC(C#N)(CC=C(Cl)Cl)Cc1ccc(Cl)cc1` yielded a melting point of 67.5 °C.

Regarding `CC(C)(C)OC(=O)N1CC(NS(=O)(=O)c2ccc(Oc3ccccc3)cc2)C(SC(C)(C)C)C1` (stereo not given), the melting point is 85 to 86 °C. For `COc1ccc(-c2[nH]nc3c2C(=O)c2c(NC(N)=O)cccc2-3)cc1`, the melting point fell in the range of 267 to 269 °C.

In the case of `O=C1OC(O)(C(F)(F)F)c2cccc(O)c21` (stereo not given), the melting point was in the range of 128 to 129 °C. To `CCc1cc(C)cc(C)c1CC(=O)O` belongs 128 to 129 °C; to `CC(C)(C)OC(=O)CCC(N)(CCC(=O)OC(C)(C)C)CCC(=O)OC(C)(C)C`, 84 to 86 °C.

In turn, `COC(=O)c1cc(OCc2ccccc2)nn1C(C)C` yielded a melting point of 73 to 74 °C.

With `O=C(CN1c2nc(-c3ccncn3)cc(=O)n2CCC12CCN(C(=O)c1cccc(F)c1)C2)c1ccccc1` (stereo not given), the melting point lay within 267 to 268 °C. As for `COc1ccc(-c2cc3cc(Cl)ccc3o2)cc1`, the melting point lay in the range of 183 to 185 °C. `CCCCc1nn(-c2cc([N+](=O)[O-])ccc2Cl)c(=O)n1Cc1ccc(-c2ccccc2S(N)(=O)=O)cc1` returned a melting point of over 90 °C. The compound `COC(=O)C=Cc1ccc(-c2ccc(O)cc2)cc1` came in with a melting point of 233 to 235 °C. The value for `CN(C)c1ccccc1CC(=N)N1C[C@@H]2C(=O)CCC(c3ccccc3)(c3ccccc3)[C@@H]2C1` was 188 °C; that for `Cc1ccc(NC(=O)c2ccccc2[N+](=O)[O-])cc1C(F)(F)F` was 172 to 173 °C. To `CC(=O)Nc1ccc(OC(=O)c2cc(OC(C)=O)ccc2OC(C)=O)cc1` belongs 148 to 150 °C; to `CC(C)(C)C(NC(=O)CCc1cccnc1)Nc1c(Nc2cccnc2Cl)c(=O)c1=O` (stereo not given), 179 to 180 °C; to `CC1(C)CC2(CC(C)(C)C1Cc1ccccc1)C(=O)C(Cc1ccccc1)C(=O)C2Cc1ccccc1` (stereo not given), 135 to 136 °C. To `O=C(c1ccn2c1CSC2c1cccnc1)c1c[nH]c2cc(-c3ncccn3)ccc12` (stereo not given) belongs 125 to 128 °C; to `CCCCCCCCCCCCCCCCCCOCCSCCO`, 58 to 59 °C. `CC(C)Cn1c(CNC(=O)OC(C)(C)C)c(-c2ccc(F)cc2)c2cc(OCc3ccccc3)ccc2c1=O` displayed a melting point of 184 to 185 °C.

On to `CC1(C)C=C(N2CCCC2=O)c2cc(Cl)ccc2O1`, for which the melting point lay within 123 to 125 °C. For `NC(=O)c1ccc(Cn2ccc(NC(=S)NCC(F)(F)F)n2)cc1`, the melting point lay within 205 to 206 °C. The value for `CNC1=Nc2ccc([N+](=O)[O-])cc2C(c2ccccc2Cl)=NC1` was 219 to 221 °C.
